The source of these data is patent US20050113253A1, “Fertilizer” (priority 2003, published 2005).

A short description of data set [1]: Solubility of prodiamine in N-methyl pyrrolidone liquid carrier. The format is physicochemical. As to conditions: N-methyl pyrrolidone as liquid carrier; heating and gentle mixing. An excerpt:
For example, when N-methyl pyrrolidone is used as the liquid carrier for prodiamine, concentrations of 50 wt. % or more can be easily achieved by heating and gentle mixing. For convenience, however, concentrations on the order of 10 to 50 wt. %, and especially about 30 to 40 wt. %, are appropriate.
A mixture of 37.6 wt. % Prodiamine Technical Grade Herbicide (94.8% active) obtained from SipCam Aro USA of Roswell, Ga., and 62.4 wt. % M-Pyrol (N-methyl pyrrolidone) solvent obtained from ISP Technologies, Inc., of Wayne, N.J., was heated to about 75° C. (about 165° F.) with mechanical stirring until the prodiamine completely dissolved. The composition so obtained was then allowed to cool to ambient and then sprayed onto a moving bed of particulate fertilizer composed of a mixture of different fertilizer ingredients having particle sizes ranging from 4.75 to 1.18 mm, a combined bulk density of 0.92 gms/cc and containing about 24% nitrogen, 5% phosphorous and 11% potassium, measured as units of total nitrogen (N), available phosphate (P2O5) and soluble potash (K2O).

The conditions of data set [2]: also printed as 187° F.; cited from earlier work.

A value given as a limit tells only on which side of the number the result lay.

With `CCCN(CCC)c1c([N+](=O)[O-])cc(C(F)(F)F)c(N)c1[N+](=O)[O-]` [prodiamine, 2,4-dinitro-N^3,N^3-di-n-propyl-6-(trfluoromethyl)-1,3-benzenediamine], in data set [1], the “concentration achievable (dissolved) in N-methyl pyrrolidone” value is recorded as not below 50 wt. %. As for `CN1CCCC1=O` [N-methyl pyrrolidone], the flash point in data set [2] is approximately 86 °C.
